The test system of the assay is cholesterol biosynthesis in HepG2 cells. As to the kind of experiment: Metabolic labeling of HepG2 cells with [3H]acetate; radio-HPLC sterol profile (inhibition of cholesterol biosynthesis). It counts as cell-based, human. As to conditions: HepG2; for activity at 10 µM: Homo sapiens, 24 h, Table I, sterol level normalized to normal medium (1.00), mean of 4 experiments; for activity at 10 µM / FF-MAS / cholesterol / desmosterol / lanosterol / lathosterol / zymosterol+7-dehydrocholesterol: 10 μM compound; for FF-MAS / cholesterol / desmosterol / lanosterol / lathosterol / zymosterol+7-dehydrocholesterol: Table II (arranged by sterol profile), normalized to normal medium (1.00); for all sterol levels (in words): 10 μM, relative to normal medium (unity). On the procedure: In accordance with the aims of the invention, the effect of the novel compounds on inhibition of cholesterol biosynthesis is assessed. An ex vivo method of metabolic labeling of immortal human hepatocytes is employed. The radioactively labeled early precursor of cholesterol [3H]acetate is added to cells with or without addition of an active new compound.
An ex vivo method of metabolic labeling of immortal human hepatocytes is employed. The radioactively labeled early precursor of cholesterol [3H]acetate is added to cells with or without addition of an active compound.
Cell culture incubation with potential inhibitors of cholesterol biosynthesis and statins Human hepatoma cell line (HepG2-ATCC No. HB-8065) is split in the recommended ratio (1:2-3) into 75 cm^2 cell flasks using two flasks per experimental condition. Cells are incubated at 37° C. with 5% CO2 in Dulbeco's modified Eagle medium (DMEM high (Sigma)) containing 5% calf serum (Sigma) and 1% L-glutamine (Sigma). After 24-hours-culturing in the growth medium, the medium is replaced with the one supplemented with 10 μM concentration of a LK compound, potential inhibitor of cholesterol biosynthesis. 10 μM solution of atorvastatin, inhibitor of HMG-CoA reductase, serves as a positive control.
After 24 hours the growth medium is changed and [^3H]acetate (NEN™ Life Science Products) added in a concentration of 40 μCi per ml of the medium (400 μCi per flask). After 4 hours cells are harvested using 2 ml of trypsin (Sigma) and the cell pellet is resuspended in 1 ml of distilled water. Cells are homogenized using the freeze and thaw method. From cell homogenate sterols are extracted and protein concentration determined using the Bio-Rad reagent.
Homogenates are transferred into 4 ml glass vial and sterols are extracted in 3 ml of extraction solution (75% n-heptane: 25% isopropanol (vol./vol.)) with ergosterol as an internal standard. For better extraction 100 μl of 0.3M NaH2PO4 (pH=1.0) is added. Closed vials are vigorously shaken (1800 rpm) for 2 hours. After extraction procedure vials are centrifuged (2000 g, 10 min) and the organic phase is transferred to fresh conical glass tubes. Extraction procedure is repeated using 1 ml of extraction solution for 15 min. Organic phases are pooled. Primary extracts are dried in vacuum centrifuge, redissolved in 3 ml of n-heptane, and incubated for 10 min at room temperature with mild shaking. After centrifugation (10 min, 2000 g) extracts are transferred into fresh glass tubes and stored in dark and cold.
The organic phase is dried, reconstituted in mobile phase for reversed phase HPLC separation and loaded onto a-HPLC column, Prism-RPN, 5 μm, 250×4,6 mm running in 100% acetonitrile at 1.00 ml/min at 40° C. temperature. Scintillation liquid is added after UV detection at 30 ml/h, at room temperature, to evaluate tritium labeled sterols on a radio detector.
Sterols are determined by comparing the eluted peaks with runs of commercial standards of lanosterol, ergosterol, desmosterol, zymosterol, 7-dehydrocholesterol, lathosterol and cholesterol or laboratory standards (FF-MAS-4,4-Dimethylcholesta-8(9),14,24-triene-3β-ol- and T-MAS-4,4-Dimethylcholesta8(9),24,diene-3,6-ol, Laboratory of Reproductive Biology, The Juliane Marie Center for Children, Women and Reproduction, University Hospital of Copenhagen, DK-2100 Copenhagen, Denmark). Results were normalized on ergosterol quantity and protein concentration. Results are presented as a mean from 4 separated experiments.
The influence of a 10 μM solution of novel LK-substances on cholesterol biosynthesis in the assay on HepG2 cells is presented in Table I. Compounds are arranged according to the building blocks, three of them are 2-pyridineethanols, 2-pyridineethylpiperazines and pyridinemethylpiperazines.
Normal medium pertains to cell cultures without a compound of the invention. Its sterol levels were used for normalization. 10 μM solution of atorvastatin serves as a positive control.

Setting [1] is: read-out: zymosterol+7-dehydrocholesterol.

Structures can show the parent of a compound that is named as a salt. Where two headings read alike, the source gives them in different places.

In turn, `c1ccc(CCN2CCN(CCc3ccncc3)CC2)cc1` [LK-9118B, 1-Phenethyl-4-(2-(pyridine-4-yl)ethyl)piperazine] returned an FF-MAS of 3.50, a cholesterol of 0.00, a desmosterol of 0.47 and a lanosterol of 1.46. Also, the lathosterol was found to be 0.23 and the “zymosterol+7-dehydrocholesterol” value amounted to 0.90. Further, for the setting “read-out: FF-MAS”, the activity at 10 µM came to 350%. Moreover, the activity at 10 µM (read-out: cholesterol) was found to be 0%. Besides, under “read-out: desmosterol”, the activity at 10 µM worked out at 47%. Moreover, the activity at 10 µM (read-out: lanosterol) is 146%. Besides, for the setting “read-out: lathosterol”, the activity at 10 µM is 23%. The activity at 10 µM under setting [1] turned out to be 90%.
Regarding `Fc1ccc(CCN2CCN(CCc3ccncc3)CC2)cc1F` [LK-9131, 1-(3,4-di-Fluorophenethyl)-4-(2-(pyridin-4-yl)ethyl)piperazine trihydrobromide], the “all sterol levels (in words)” value was “reduce all sterol levels below unity”, the FF-MAS was determined as 0.72, the cholesterol is listed as 0.00 and the desmosterol amounted to 0.01. For the same compound, the lanosterol was 0.69, the lathosterol is 0.05 and the “zymosterol+7-dehydrocholesterol” value was 0.09. For the same compound, the activity at 10 µM (read-out: FF-MAS) was found to be 72%. Besides, where the note is “read-out: cholesterol”, the activity at 10 µM turned out to be 0%. Under “read-out: desmosterol”, the activity at 10 µM was 1%. The activity at 10 µM (read-out: lanosterol) was 69%. For the setting “read-out: lathosterol”, the activity at 10 µM came out at 5%. The activity at 10 µM under setting [1] was 9%.
Take `Clc1ccc(CCN2CCN(CCc3ccncc3)CC2)cc1Cl` [LK-9135, 1-(3,4-Dichlorophenethyl)-4-(2-(pyridin-4-yl)ethyl)piperazine trihydrobromide]: the “all sterol levels (in words)” value is given as “reduce all sterol levels below unity”, the FF-MAS turned out to be 0.27, the cholesterol is 0.00 and the desmosterol is 0.00. Also, the lanosterol is given as 0.43, the lathosterol came out at 0.00 and the “zymosterol+7-dehydrocholesterol” value came out at 0.02. The activity at 10 µM (read-out: FF-MAS) stood at 27%. In addition, for the setting “read-out: cholesterol”, the activity at 10 µM worked out at 0%. Besides, the activity at 10 µM (read-out: desmosterol) amounted to 0%. In addition, for the setting “read-out: lanosterol”, the activity at 10 µM worked out at 43%. The activity at 10 µM (read-out: lathosterol) stood at 0%. The activity at 10 µM under setting [1] turned out to be 2%.
Consider `Clc1ccc(CCN2CCN(CCc3ccccn3)CC2)cc1Cl` [LK-9137, 1-(3,4-Dichlorophenethyl)-4-(2-(pyridin-2-yl)ethyl)piperazine trihydrobromide], for which the FF-MAS came to 1.42, the cholesterol was found to be 0.06, the desmosterol is 0.22 and the lanosterol worked out at 0.63. The lathosterol worked out at 0.60 and the “zymosterol+7-dehydrocholesterol” value was determined as 1.41. Besides, the activity at 10 µM (read-out: FF-MAS) was 142%. The activity at 10 µM (read-out: cholesterol) was found to be 6%. For the setting “read-out: desmosterol”, the activity at 10 µM was determined as 22%. Further, the activity at 10 µM (read-out: lanosterol) came to 63%. In addition, the activity at 10 µM (read-out: lathosterol) is 60%. For the same compound, under setting [1], the activity at 10 µM is 141%.
Regarding `Fc1ccc(CCN2CCN(CCc3ccccn3)CC2)cc1F` [LK-9138, 1-(3,4-Difluorophenethyl)-4-(2-(pyridin-2-yl)ethyl)piperazine trihydrobromide], the “all sterol levels (in words)” value is “reduce all sterol levels below unity”, the FF-MAS amounted to 0.70, the cholesterol amounted to 0.01 and the desmosterol worked out at 0.07. For the same compound, the lanosterol amounted to 0.25, the lathosterol was 0.08 and the “zymosterol+7-dehydrocholesterol” value was 0.21. The activity at 10 µM (read-out: FF-MAS) amounted to 70%. For the same compound, under “read-out: cholesterol”, the activity at 10 µM amounted to 1%. Moreover, the activity at 10 µM (read-out: desmosterol) came to 7%. Further, the activity at 10 µM (read-out: lanosterol) was 25%. Further, the activity at 10 µM (read-out: lathosterol) worked out at 8%. Further, the activity at 10 µM under setting [1] amounted to 21%.
In turn, `Cc1ccc(C(O)CN2CCN(CCc3ccccc3)CC2)cn1` (stereo not shown) [LK-9139, 2-(4-Phenethylpiperazine-1-yl)-1-(6-methylpyridin-3-yl)ethanol trihydrobromide] registered an FF-MAS of 1.19, a cholesterol of 0.01, a desmosterol of 0.14 and a lanosterol of 0.38. In addition, the lathosterol is 0.15 and the “zymosterol+7-dehydrocholesterol” value was found to be 0.38. Also, the activity at 10 µM (read-out: FF-MAS) was 119%. The activity at 10 µM (read-out: cholesterol) turned out to be 1%. Under “read-out: desmosterol”, the activity at 10 µM worked out at 14%. Moreover, the activity at 10 µM (read-out: lanosterol) came to 38%. Also, the activity at 10 µM (read-out: lathosterol) was 15%. Further, the activity at 10 µM under setting [1] is 38%.
In the case of `c1ccc(CCN2CCN(CCCc3cccnc3)CC2)cc1` [LK-9140, 1-Phenethyl-4-(3-(pyridine-3-yl)propyl)piperazine trihydrobromide], the “all sterol levels (in words)” value is “reduce all sterol levels below unity”, the FF-MAS came out at 0.72, the cholesterol was determined as 0.00 and the desmosterol is recorded as 0.01. For the same compound, the lanosterol is 0.24, the lathosterol turned out to be 0.03 and the “zymosterol+7-dehydrocholesterol” value amounted to 0.15. Further, the activity at 10 µM (read-out: FF-MAS) came out at 72%. Moreover, the activity at 10 µM (read-out: cholesterol) is 0%. Moreover, the activity at 10 µM (read-out: desmosterol) amounted to 1%. Where the note is “read-out: lanosterol”, the activity at 10 µM was determined as 24%. Also, for the setting “read-out: lathosterol”, the activity at 10 µM came out at 3%. Besides, the activity at 10 µM under setting [1] was found to be 15%.
In turn, `OC(CN1CCN(c2ccc(F)cc2)CC1)c1cccnc1` (stereo not shown) [LK-9144, 2-(4-(4-Fluorophenyl)piperazine-1-yl)-1-(pyridine-3-yl)ethanol trihydrobromide] gave an FF-MAS of 0.99, a cholesterol of 0.09, a desmosterol of 0.05 and a lanosterol of 0.88. Besides, the lathosterol was 0.56 and the “zymosterol+7-dehydrocholesterol” value is given as 1.50. Moreover, the activity at 10 µM (read-out: FF-MAS) turned out to be 99%. Also, for the setting “read-out: cholesterol”, the activity at 10 µM turned out to be 9%. Besides, the activity at 10 µM (read-out: desmosterol) was determined as 5%. Moreover, where the note is “read-out: lanosterol”, the activity at 10 µM is 88%. Moreover, under “read-out: lathosterol”, the activity at 10 µM worked out at 56%. Besides, the activity at 10 µM under setting [1] was 150%.
In turn, `OC(CN1CCN(Cc2ccc(F)cc2)CC1)c1cccnc1` (stereo not shown) [LK-9148, 2-(4-(4-Fluorobenzyl)piperazine-1-yl)-1-(pyridine-3-yl)ethanol trihydrobromide] returned an FF-MAS of 1.25, a cholesterol of 0.14, a desmosterol of 0.38 and a lanosterol of 0.80. Besides, the lathosterol is given as 0.65 and the “zymosterol+7-dehydrocholesterol” value is 1.44. Where the note is “read-out: FF-MAS”, the activity at 10 µM stood at 125%. The activity at 10 µM (read-out: cholesterol) amounted to 14%. In addition, the activity at 10 µM (read-out: desmosterol) was 38%. Also, under “read-out: lanosterol”, the activity at 10 µM came to 80%. For the same compound, the activity at 10 µM (read-out: lathosterol) is 65%. Besides, the activity at 10 µM under setting [1] was 144%.

The record behind these values is patent US20090018118A1, “HETEROCYCLIC COMPOUNDS” (priority 2005, published 2009).
